# Measurements as given in US11684614B2, “Formulations of hydroxypyridonate actinide/lanthanide decorporation agents” (priority 2017, dated 2023).
# Read-outs that look alike come from different tables or passages of the source.
# What was measured:
# [1] = Non-GLP 7-day repeat dose studies in beagle dogs, pharmacokinetics incl. iv group (SRI No. B677-13, M835-11); assay type: in vivo
# Text: These two pilot studies included an iv administration group so that oral bioavailability could be calculated. The oral bioavailability was low at <3% and essentially the same in both studies regardless of whether the dogs received formulated capsules or 3,4,3-L1(1,2-HOPO) dissolved in PBS without sodium oleate. […] Volume of distribution was 0.3 L/kg, consistent with drug that is distributed primarily to the extracellular space.
# [2] = assay type: in vivo, Swiss-Webster mice
# Text: Formulated material was used in the single dose in vivo ADME characterization studies in Sprague Dawley rats and Swiss-Webster mice with 14C-labeled 3,4,3-L1(1,2-HOPO).
# Pharmacokinetic parameters and disposition/biodistribution of 3,4,3-L1(1,2-HOPO) were characterized in vivo (with the aid of two 14C labels on the spermine backbone of the parent product) in two non-GLP studies using Swiss-Webster mice and Sprague Dawley rats. The study designs for these two studies are shown in TABLE 5.1 and TABLE 5.2, respectively. Groups of six mice (3 male, 3 female) were given a single dose of [14C]-3,4,3-L1(1,2-HOPO) via iv, ip, or po routes, respectively. An additional group of six mice (3 male, 3 female) were administered the 14C-labeled API with permeability enhancer (10% sodium oleate) by oral gavage (po). Similarly, groups of six rats (3 male, 3 female) were administered a single iv dose of the 14C-labeled API or a single po dose of the 14C-labeled API with 10% sodium oleate. In each of these studies, samples were collected at scheduled time points up to 24 hr post-dose and analyzed for 14C content using liquid scintillation counting. Blood, liver, kidney, feces and urine were collected and analyzed from the mice. Blood, brain, liver, kidney, lungs, spleen, skeletal muscle tissues, gastrointestinal (GI) tract samples, carcasses, feces, and urine were collected and analyzed from the rats.
# [3] = target: CYP2C19 (Homo sapiens, UniProt P33261); experiment: CYP inhibition; assay type: in vitro ADME
# [4] = Stability in gastric fluid; assay type: in vitro ADME
# [5] = target: T1, CYP1A2 (Homo sapiens, UniProt P05177); experiment: CYP inhibition; assay type: in vitro ADME
# T1 sequence (P05177 1-516): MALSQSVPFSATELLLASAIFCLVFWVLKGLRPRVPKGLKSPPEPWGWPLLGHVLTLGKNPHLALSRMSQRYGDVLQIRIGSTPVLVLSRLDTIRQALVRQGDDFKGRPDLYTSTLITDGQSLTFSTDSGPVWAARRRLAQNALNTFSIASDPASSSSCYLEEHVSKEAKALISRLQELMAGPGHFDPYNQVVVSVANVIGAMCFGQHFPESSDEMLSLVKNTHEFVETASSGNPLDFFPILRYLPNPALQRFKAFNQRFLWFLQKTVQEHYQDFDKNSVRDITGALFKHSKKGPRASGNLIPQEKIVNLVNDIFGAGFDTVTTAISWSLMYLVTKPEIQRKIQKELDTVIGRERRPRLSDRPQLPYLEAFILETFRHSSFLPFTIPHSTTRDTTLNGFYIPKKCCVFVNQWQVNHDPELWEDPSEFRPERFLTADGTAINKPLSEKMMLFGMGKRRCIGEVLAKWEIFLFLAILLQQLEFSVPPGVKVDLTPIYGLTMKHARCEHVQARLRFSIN
# [6] = Plasma protein binding, rat; assay type: in vitro ADME; details: tested at 10 μg/ml
# Experimental: Plasma protein binding differed across species; it was greatest in dog (95%), intermediate in human (29%), and lowest in rat (5%) when tested at 10 μg/ml.
# [7] = po, female mice, formulated with sodium oleate
# [8] = po, female mice, without sodium oleate
# [9] = po, male mice, formulated with sodium oleate
# [10] = po, male mice, without sodium oleate
# CYP2C19, sequence (P33261 whole entry): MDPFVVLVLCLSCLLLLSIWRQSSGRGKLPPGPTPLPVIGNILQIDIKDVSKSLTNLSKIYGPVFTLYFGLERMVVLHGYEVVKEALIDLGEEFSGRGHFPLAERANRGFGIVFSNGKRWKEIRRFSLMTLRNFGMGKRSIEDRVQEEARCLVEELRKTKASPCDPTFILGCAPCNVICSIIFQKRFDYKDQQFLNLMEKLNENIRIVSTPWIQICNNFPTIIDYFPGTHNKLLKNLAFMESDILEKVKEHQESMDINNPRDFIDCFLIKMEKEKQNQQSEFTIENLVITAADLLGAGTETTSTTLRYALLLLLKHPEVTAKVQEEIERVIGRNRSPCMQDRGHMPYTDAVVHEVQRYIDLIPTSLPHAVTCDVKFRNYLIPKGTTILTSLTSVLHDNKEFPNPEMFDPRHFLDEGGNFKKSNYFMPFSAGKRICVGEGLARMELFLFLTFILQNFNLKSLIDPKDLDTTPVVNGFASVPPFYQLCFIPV
smiles,measurement,setting,value
"O=C(NCCCN(CCCCN(CCCNC(=O)c1cccc(=O)n1O)C(=O)c1cccc(=O)n1O)C(=O)c1cccc(=O)n1O)c1cccc(=O)n1O [3,4,3-L1(1,2-HOPO)]",accumulation in the plasma,[1]; after 7 days of dosing,did not accumulate in the plasma
same,oral bioavailability,[1]; formulated capsules or API in PBS without sodium oleate,< 3%
same,Volume of distribution,[1]; iv 37.6 mg/kg (50 μmol/kg),0.3 L/kg
same,clearance (Cl),[1]; iv 37.6 mg/kg (50 μmol/kg),9.9 mL/min/kg
same,mean AUCinf,[1]; iv 37.6 mg/kg (50 μmol/kg),64000 ng·h/mL
same,observed peak plasma level,[1]; iv 37.6 mg/kg (50 μmol/kg),115 ± 11 µg/mL
same,t½,[1]; iv 37.6 mg/kg (50 μmol/kg),24 min
same,oral bioavailability (F) of radioactive compound,[2]; female mice,2.6%
same,oral bioavailability (F) of radioactive compound,[2]; male mice,1.2%
same,enhancement of exposure parameters with sodium oleate,[2]; mice,2- to 3 fold
same,oral bioavailability improvement with sodium oleate,[2]; mice,about 2 fold
same,Tmax,"[2]; oral dose, rodents (mice)",~42 min
same,AUC calculated over 2 hr posttreatment,[2]; [7],35.1±18.9 min Pg-eq/ml
same,Cmax,[2]; [7],1.4 Pg-eq/ml
same,AUC calculated over 2 hr posttreatment,[2]; [8],23.0±15.4 min Pg-eq/ml
same,Cmax,[2]; [8],0.55 Pg-eq/ml
same,AUC calculated over 2 hr posttreatment,[2]; [9],17.4±6.7 min Pg-eq/ml
same,Cmax,[2]; [9],0.93 Pg-eq/ml
same,AUC calculated over 2 hr posttreatment,[2]; [10],8.3±6.2 min Pg-eq/ml
same,Cmax,[2]; [10],0.32 Pg-eq/ml
same,Cmax improvement with sodium oleate,"[2]; po, mice",approximately 3 fold
same,inhibition of CYP2C19 activity,[3],did not inhibit
same,stability in gastric fluid,[4],degraded slightly
same,inhibition of CYP1A2 activity,[5],did not inhibit
same,Plasma protein binding,[6],5%
